From ChEMBL document CHEMBL4024706 (Eur J Med Chem, 2017)

How the values were obtained:
[1] = biological target: Casein kinase I isoform gamma-3 (Homo sapiens) (UniProt Q9Y6M4); assay: Inhibition of wild-type human full length CSNK1G3 (M1 to K447 residues) expressed in bacterial expression system assessed as residual activity at 1 uM by Kinomescan method relative to control
[2] = MRT (0 to t) in Sprague-Dawley rat at 10 mg/kg, po by LC-MS/MS method; assay type: ADME, organism-based; details: in vivo
[3] = biological target: Serine/threonine-protein kinase Nek1 (Homo sapiens) (UniProt Q96PY6); assay: Inhibition of wild-type human partial length NEK1 (M1 to K278 residues) expressed in bacterial expression system assessed as residual activity at 1 uM by Kinomescan method relative to control
[4] = biological target: Ephrin type-A receptor 5 (Homo sapiens) (UniProt P54756); assay: Inhibition of wild-type human partial length EPHA5 (T627 to V930 residues) expressed in bacterial expression system assessed as residual activity at 1 uM by Kinomescan method relative to control
[5] = biological target: Mitogen-activated protein kinase 7 (Homo sapiens) (UniProt Q13164); assay: Inhibition of wild-type human partial length ERK5 (M1 to A409 residues) expressed in bacterial expression system assessed as residual activity at 1 uM by Kinomescan method relative to control
[6] = biological target: Glycogen synthase kinase-3 alpha (Homo sapiens) (UniProt P49840); assay: Inhibition of wild-type human full length GSK3A (M1 to S483 residues) expressed in bacterial expression system assessed as residual activity at 1 uM by Kinomescan method relative to control
[7] = biological target: Casein kinase I isoform delta (Homo sapiens) (UniProt P48730); assay: Inhibition of wild-type human full length CSNK1D (M1 to K409 residues) expressed in bacterial expression system assessed as residual activity at 1 uM by Kinomescan method relative to control
[8] = biological target: Serine/threonine-protein kinase RIO3 (Homo sapiens) (UniProt O14730); assay: Inhibition of wild-type human full length RIOK3 (M1 to E519 residues) expressed in bacterial expression system assessed as residual activity at 1 uM by Kinomescan method relative to control
[9] = Tmax in Sprague-Dawley rat at 10 mg/kg, po by LC-MS/MS method; assay type: ADME, organism-based; details: in vivo
[10] = biological target: NUAK family SNF1-like kinase 2 (Homo sapiens) (UniProt Q9H093); assay: Inhibition of wild-type human partial length SNARK (P22 to A333 residues) expressed in mammalian expression system assessed as residual activity at 1 uM by Kinomescan method relative to control
[11] = biological target: Wee1-like protein kinase (Homo sapiens) (UniProt P30291); assay: Inhibition of wild-type human partial length WEE1 (M291 to K575 residues) expressed in bacterial expression system assessed as residual activity at 1 uM by Kinomescan method relative to control
[12] = biological target: Tyrosine-protein kinase Lyn (Homo sapiens) (UniProt P07948); assay: Inhibition of wild-type human partial length LYN (C219 to Q511 residues) expressed in bacterial expression system assessed as residual activity at 1 uM by Kinomescan method relative to control
[13] = biological target: Uncharacterized serine/threonine-protein kinase SBK3 (Homo sapiens) (UniProt P0C264); assay: Inhibition of wild-type human partial length SgK110 (L22 to R329 residues) expressed in bacterial expression system assessed as residual activity at 1 uM by Kinomescan method relative to control
[14] = biological target: Serine/threonine-protein kinase 38-like (Homo sapiens) (UniProt Q9Y2H1); assay: Inhibition of wild-type human partial length NDR2 (N34 to E447 residues) expressed in bacterial expression system assessed as residual activity at 1 uM by Kinomescan method relative to control
[15] = biological target: Tyrosine-protein kinase JAK1 (Homo sapiens) (UniProt P23458); assay: Inhibition of wild-type human partial length JAK1 JH1 catalytic domain (V856 to K1154 residues) expressed in bacterial expression system assessed as residual activity at 1 uM by Kinomescan method relative to control
[16] = biological target: Aurora kinase A (Homo sapiens) (UniProt O14965); assay: Inhibition of wild-type human partial length AURKA (E122 to K401 residues) expressed in mammalian expression system assessed as residual activity at 1 uM by Kinomescan method relative to control
[17] = biological target: Cyclin-dependent kinase-like 1 (Homo sapiens) (UniProt Q00532); assay: Inhibition of wild-type human full length CDKL1 (M1 to I358 residues) expressed in mammalian expression system assessed as residual activity at 1 uM by Kinomescan method relative to control
[18] = biological target: Phosphatidylinositol 3-kinase C2 domain-containing subunit gamma (Homo sapiens) (UniProt O75747); assay: Inhibition of wild-type human partial length PIK3C2G (M1 to I1446 residues) expressed in mammalian expression system assessed as residual activity at 1 uM by Kinomescan method relative to control
[19] = biological target: Activated CDC42 kinase 1 (Homo sapiens) (UniProt Q07912); assay: Inhibition of wild-type human partial length TNK2 (S159 to D474 residues) expressed in bacterial expression system assessed as residual activity at 1 uM by Kinomescan method relative to control
[20] = biological target: Cyclin-dependent kinase 9 (Homo sapiens) (UniProt P50750); assay: Inhibition of wild-type human full length CDK9 (M1 to F372 residues) expressed in bacterial expression system assessed as residual activity at 1 uM by Kinomescan method relative to control
[21] = biological target: Tyrosine-protein kinase TXK (Homo sapiens) (UniProt P42681); assay: Inhibition of wild-type human partial length TXK (L238 to W527 residues) expressed in bacterial expression system assessed as residual activity at 1 uM by Kinomescan method relative to control
[22] = biological target: Cyclin-dependent kinase 4/cyclin D1 (Homo sapiens) (UniProt P11802+P24385); assay: Inhibition of wild-type human full length CDK4/cyclinD1 (M1 to E303 residues) expressed in mammalian expression system assessed as residual activity at 1 uM by Kinomescan method relative to control
[23] = biological target: Death-associated protein kinase 1 (Homo sapiens) (UniProt P53355); assay: Inhibition of wild-type human partial length DAPK1 (M1 to F296 residues) expressed in bacterial expression system assessed as residual activity at 1 uM by Kinomescan method relative to control
[24] = biological target: STE20/SPS1-related proline-alanine-rich protein kinase (Homo sapiens) (UniProt Q9UEW8); assay: Inhibition of wild-type human partial length STK39 (P43 to I357 residues) expressed in mammalian expression system assessed as residual activity at 1 uM by Kinomescan method relative to control
[25] = biological target: Protein kinase C epsilon type (Homo sapiens) (UniProt Q02156); assay: Inhibition of wild-type human partial length PRKCE (A378 to P737 residues) expressed in mammalian expression system assessed as residual activity at 1 uM by Kinomescan method relative to control
[26] = biological target: Ribosomal protein S6 kinase alpha-6 (Homo sapiens) (UniProt Q9UK32); assay: Inhibition of wild-type human partial length N-terminal RSK4 kinase domain 1 (M1 to E397 residues) expressed in mammalian expression system assessed as residual activity at 1 uM by Kinomescan method relative to control

Chain of Tyrosine-protein kinase JAK1 (Homo sapiens) (P23458 whole entry, the tested form may be a part): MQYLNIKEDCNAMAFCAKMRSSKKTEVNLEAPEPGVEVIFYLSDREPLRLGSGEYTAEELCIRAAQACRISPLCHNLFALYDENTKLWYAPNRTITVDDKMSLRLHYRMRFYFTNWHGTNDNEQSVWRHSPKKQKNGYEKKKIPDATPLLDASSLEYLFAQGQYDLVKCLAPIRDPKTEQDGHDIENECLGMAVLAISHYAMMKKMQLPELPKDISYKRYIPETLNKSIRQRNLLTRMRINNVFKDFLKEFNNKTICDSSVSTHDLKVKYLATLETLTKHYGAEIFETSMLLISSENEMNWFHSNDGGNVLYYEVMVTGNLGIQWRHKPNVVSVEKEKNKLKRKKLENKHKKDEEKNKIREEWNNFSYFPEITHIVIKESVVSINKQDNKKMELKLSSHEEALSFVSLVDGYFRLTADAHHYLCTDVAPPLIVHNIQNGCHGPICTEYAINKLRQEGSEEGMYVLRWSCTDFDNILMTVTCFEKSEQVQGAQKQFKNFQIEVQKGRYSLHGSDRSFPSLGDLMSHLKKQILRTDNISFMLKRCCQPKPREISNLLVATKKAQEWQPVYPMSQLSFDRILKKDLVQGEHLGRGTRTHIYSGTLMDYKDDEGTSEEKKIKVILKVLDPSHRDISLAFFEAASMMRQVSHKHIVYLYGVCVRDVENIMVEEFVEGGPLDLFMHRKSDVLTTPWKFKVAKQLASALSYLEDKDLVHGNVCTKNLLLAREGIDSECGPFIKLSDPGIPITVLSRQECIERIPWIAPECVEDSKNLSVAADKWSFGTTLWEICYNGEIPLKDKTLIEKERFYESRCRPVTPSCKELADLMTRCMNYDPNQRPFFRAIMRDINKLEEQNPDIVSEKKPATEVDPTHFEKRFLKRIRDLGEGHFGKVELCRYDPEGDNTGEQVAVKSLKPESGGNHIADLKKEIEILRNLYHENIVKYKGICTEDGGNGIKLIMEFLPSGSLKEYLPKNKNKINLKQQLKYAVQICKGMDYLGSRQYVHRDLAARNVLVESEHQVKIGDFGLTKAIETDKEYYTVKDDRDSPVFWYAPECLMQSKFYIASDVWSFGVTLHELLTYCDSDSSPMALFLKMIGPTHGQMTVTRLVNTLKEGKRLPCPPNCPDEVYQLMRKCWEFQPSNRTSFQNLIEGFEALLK
Chain of Aurora kinase A (Homo sapiens) (O14965 whole entry, the tested form may be a part): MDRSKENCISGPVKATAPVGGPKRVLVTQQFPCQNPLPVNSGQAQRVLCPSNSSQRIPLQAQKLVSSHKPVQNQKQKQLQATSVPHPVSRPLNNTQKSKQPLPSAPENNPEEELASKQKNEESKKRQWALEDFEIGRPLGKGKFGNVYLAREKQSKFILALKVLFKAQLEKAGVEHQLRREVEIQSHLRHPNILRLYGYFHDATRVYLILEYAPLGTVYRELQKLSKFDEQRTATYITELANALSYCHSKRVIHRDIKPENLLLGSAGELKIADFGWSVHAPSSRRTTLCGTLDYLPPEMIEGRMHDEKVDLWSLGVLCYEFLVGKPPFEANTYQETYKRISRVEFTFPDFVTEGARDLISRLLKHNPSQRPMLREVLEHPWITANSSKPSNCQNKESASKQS
Chain of Tyrosine-protein kinase Lyn (Homo sapiens) (P07948 2-512 limits assumed): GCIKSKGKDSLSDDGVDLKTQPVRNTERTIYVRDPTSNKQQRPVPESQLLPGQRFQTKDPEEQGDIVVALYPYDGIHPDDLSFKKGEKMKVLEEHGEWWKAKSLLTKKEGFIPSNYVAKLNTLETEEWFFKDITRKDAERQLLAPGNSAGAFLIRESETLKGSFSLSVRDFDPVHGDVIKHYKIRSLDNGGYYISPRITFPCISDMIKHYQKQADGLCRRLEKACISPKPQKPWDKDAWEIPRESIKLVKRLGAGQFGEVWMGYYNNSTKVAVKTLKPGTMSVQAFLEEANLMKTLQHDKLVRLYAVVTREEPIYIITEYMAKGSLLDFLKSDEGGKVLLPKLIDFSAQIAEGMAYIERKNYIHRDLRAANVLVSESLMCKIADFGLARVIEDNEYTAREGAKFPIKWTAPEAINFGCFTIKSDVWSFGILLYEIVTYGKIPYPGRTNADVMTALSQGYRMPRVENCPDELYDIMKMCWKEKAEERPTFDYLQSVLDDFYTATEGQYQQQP
Chain of NUAK family SNF1-like kinase 2 (Homo sapiens) (Q9H093 whole entry, the tested form may be a part): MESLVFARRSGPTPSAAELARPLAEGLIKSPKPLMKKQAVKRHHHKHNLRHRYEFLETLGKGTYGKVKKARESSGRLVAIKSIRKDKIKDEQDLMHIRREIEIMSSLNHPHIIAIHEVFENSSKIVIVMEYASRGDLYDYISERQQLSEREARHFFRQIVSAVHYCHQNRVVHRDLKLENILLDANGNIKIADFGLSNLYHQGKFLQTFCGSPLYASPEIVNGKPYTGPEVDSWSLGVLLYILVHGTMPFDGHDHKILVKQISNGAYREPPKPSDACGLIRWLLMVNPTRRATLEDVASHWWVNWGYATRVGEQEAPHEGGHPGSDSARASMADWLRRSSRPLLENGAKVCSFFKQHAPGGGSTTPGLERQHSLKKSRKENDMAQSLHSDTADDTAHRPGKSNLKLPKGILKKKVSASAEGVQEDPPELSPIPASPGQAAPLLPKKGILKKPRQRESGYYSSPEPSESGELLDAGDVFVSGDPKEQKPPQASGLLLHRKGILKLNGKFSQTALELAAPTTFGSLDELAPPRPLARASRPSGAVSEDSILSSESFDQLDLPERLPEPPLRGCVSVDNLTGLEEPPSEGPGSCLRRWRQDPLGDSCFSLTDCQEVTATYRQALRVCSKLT
Chain of Death-associated protein kinase 1 (Homo sapiens) (P53355 whole entry, looked up, the tested form may be a part): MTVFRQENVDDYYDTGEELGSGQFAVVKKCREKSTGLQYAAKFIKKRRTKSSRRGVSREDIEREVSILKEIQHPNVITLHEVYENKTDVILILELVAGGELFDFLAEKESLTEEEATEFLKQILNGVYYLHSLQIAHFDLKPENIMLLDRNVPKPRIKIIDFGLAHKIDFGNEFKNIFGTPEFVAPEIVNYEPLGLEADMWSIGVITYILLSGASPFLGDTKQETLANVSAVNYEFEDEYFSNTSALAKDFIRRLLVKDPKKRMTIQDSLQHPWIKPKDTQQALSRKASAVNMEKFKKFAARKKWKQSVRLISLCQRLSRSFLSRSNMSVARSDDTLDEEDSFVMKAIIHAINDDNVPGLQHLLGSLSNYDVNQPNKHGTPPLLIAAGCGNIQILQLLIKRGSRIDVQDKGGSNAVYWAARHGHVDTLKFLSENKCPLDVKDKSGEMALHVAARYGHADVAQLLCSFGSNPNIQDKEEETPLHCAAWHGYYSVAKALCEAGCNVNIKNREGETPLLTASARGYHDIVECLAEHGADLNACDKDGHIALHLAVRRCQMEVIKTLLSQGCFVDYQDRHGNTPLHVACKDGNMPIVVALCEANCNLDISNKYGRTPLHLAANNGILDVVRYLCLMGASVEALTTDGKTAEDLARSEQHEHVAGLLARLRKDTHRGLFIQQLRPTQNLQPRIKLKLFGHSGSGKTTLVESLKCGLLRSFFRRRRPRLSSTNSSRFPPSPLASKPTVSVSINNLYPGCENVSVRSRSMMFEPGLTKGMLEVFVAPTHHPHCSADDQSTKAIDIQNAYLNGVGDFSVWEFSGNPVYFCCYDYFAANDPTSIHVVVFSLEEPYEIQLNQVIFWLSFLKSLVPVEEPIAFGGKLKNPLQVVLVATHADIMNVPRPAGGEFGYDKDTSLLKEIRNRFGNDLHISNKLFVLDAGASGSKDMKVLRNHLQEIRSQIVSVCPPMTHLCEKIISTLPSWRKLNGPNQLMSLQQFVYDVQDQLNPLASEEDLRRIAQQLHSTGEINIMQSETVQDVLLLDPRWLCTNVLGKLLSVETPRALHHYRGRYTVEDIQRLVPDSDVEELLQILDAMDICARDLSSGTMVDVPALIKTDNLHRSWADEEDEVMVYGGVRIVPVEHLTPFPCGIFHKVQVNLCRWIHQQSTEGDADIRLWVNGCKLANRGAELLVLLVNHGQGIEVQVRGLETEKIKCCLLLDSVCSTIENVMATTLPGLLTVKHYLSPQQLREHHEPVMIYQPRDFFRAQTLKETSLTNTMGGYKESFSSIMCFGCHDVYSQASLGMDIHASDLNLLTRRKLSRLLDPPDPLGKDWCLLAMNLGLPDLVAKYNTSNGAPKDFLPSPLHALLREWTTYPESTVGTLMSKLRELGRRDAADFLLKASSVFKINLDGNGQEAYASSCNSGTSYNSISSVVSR
Chain of Uncharacterized serine/threonine-protein kinase SBK3 (Homo sapiens) (P0C264 whole entry, the tested form may be a part): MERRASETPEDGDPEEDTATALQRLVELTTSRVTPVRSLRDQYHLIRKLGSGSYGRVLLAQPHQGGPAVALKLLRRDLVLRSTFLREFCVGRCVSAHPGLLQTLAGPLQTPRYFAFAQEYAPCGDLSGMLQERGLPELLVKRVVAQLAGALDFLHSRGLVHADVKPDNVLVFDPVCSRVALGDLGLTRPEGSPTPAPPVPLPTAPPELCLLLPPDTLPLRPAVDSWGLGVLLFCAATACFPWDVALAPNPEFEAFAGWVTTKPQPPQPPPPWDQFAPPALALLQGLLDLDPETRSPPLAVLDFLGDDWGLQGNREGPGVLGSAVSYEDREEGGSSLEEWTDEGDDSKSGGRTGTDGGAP
Chain of Serine/threonine-protein kinase 38-like (Homo sapiens) (Q9Y2H1 2-464 limits assumed): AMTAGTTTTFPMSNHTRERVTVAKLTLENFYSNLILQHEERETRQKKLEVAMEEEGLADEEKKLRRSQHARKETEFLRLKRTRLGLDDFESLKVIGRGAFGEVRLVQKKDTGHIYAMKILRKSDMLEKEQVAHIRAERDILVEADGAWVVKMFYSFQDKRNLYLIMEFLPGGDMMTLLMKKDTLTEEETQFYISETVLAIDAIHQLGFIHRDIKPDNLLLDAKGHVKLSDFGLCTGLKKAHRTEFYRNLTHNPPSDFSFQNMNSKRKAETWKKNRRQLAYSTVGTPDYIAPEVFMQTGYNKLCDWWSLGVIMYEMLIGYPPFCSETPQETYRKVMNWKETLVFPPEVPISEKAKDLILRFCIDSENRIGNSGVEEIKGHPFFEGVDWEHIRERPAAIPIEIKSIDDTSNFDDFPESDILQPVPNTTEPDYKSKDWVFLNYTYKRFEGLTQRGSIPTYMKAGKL

SMILES: C=CC(=O)Nc1cc(Nc2cc(-c3cccc(NC(=O)c4ccc(C(C)(C)C)cc4)c3C)cn(C)c2=O)ccc1C(=O)N1CCOCC1
- Activity [1]: 90%
- MRT last [2]: 81.6 min
- Activity [3]: 100%
- Activity [4]: 92%
- Activity [5]: 99%
- Activity [6]: 100%
- Activity [7]: 99%
- Activity [8]: 78%
- Tmax [9]: 30 min
- Activity [10]: 87%
- Activity [11]: 99%
- Activity [12]: 92%
- Activity [13]: 77%
- Activity [14]: 100%
- Activity [15]: 100%
- Activity [16]: 61%
- Activity [17]: 100%
- Activity [18]: 95%
- Activity [19]: 95%
- Activity [20]: 99%
- Activity [21]: 100%
- Activity [22]: 100%
- Activity [23]: 100%
- Activity [24]: 70%
- Activity [25]: 96%
- Activity [26]: 90%
